# According to US20060115815A1 (priority 2002, published 2006):
# Like-named read-outs stand apart in the source and are kept apart here.
# Experiments:
# WT HIV-1 = assay: microbe, parasite or virus in culture; type: cell-based; conditions: Human immunodeficiency virus 1, read-out: Cell-based assay (MT-4) EC50/nM WT
# 84V90M = 84V90M (Human immunodeficiency virus type 1 group M subtype B, UniProt P04585, I572V/L578M); assay: cell-based; parameters: species or system HIV-1
# [1] = molecular target: recombinant HIV-1 protease (Human immunodeficiency virus type 1 group M subtype B, UniProt P04585); assay: biochemical; type: biochemical
# [2] = tested on: mutant HIV-1 with I84V/L90M mutations in the protease gene; type: cell-based
# [3] = tested on: wild-type HIV-1 strain IIIB; assay: microbe, parasite or virus in culture; type: cell-based; conditions: read-out: EC50
# WT = assay: microbe, parasite or virus in culture; type: cell-based, HIV-1; conditions: Human immunodeficiency virus 1, read-out: Cell-based assay (MT-4) EC50 WT
# 30N82I88D = assay: microbe, parasite or virus in culture; type: cell-based, HIV-1; conditions: Human immunodeficiency virus 1, read-out: Cell-based assay (MT-4) EC50 30N82I88D
# [4] = fold difference in EC50, mutant vs. wild type
smiles,measurement,setting,value
CCOP(=O)(COc1ccc(CC2C(O)C(O)C(Cc3ccccc3)N(Cc3ccccc3)C(=O)N2Cc2ccccc2)cc1)OCC (stereo not shown),EC50,WT HIV-1,107 nM
Nc1n[nH]c2ccc(CN3C(=O)N(Cc4cccc(OCP(=O)(O)Oc5ccccc5)c4)C(Cc4ccccc4)C(O)C(O)C3Cc3ccccc3)cc12 (stereo not shown) [m-OCH2PO3HPh],EC50,84V90M,> 6000 nM
COc1ccc(S(=O)(=O)N(CC(C)C)CC(O)C(CC2=CCN(CP(=O)(O)OC(C)C(=O)O)CC2)NC(=O)OC2COC3OCCC23)cc1 (stereo not shown),Ki,[1]; read-out: Ki,> 1000 pM
COc1ccc(S(=O)(=O)N(C[C@@H](O)[C@H](Cc2ccccc2)NC(=O)O[C@H]2CO[C@H]3OCC[C@H]32)CC(C)(C)COCP(=O)(O)O)cc1,I84V/L90M fold change,[2]; I84V/L90M mutant,+++ (>30)
same,EC50,[3],500 to 5000 nM
COc1ccc(S(=O)(=O)N(CC(C)C)CC(O)C(Cc2ccc(NCP(=O)(NC(C)C(=O)OC(C)C)Oc3ccccc3)cc2)NC(=O)OC2COC3OCCC23)cc1 (stereo not shown) [drawing 705],Ki,"[1]; Ki (pM), class symbols, Table 10",< 10 pM
CC(C)CN(CC(O)C(Cc1ccc(OCP(=O)(O)OC(C)C(=O)O)cc1)NC(=O)OC1COC2OCCC12)S(=O)(=O)c1ccc(CO)cc1 (stereo not shown),Ki,[1]; read-out: Ki,10 to 100 pM
"CCOP(=O)(COc1ccc(CC2C(O)C(O)C(Cc3ccc(OC)cc3)N(Cc3cccc(N)c3)C(=O)N2Cc2cccc(N)c2)cc1)OCC (stereo not shown) [OCH3, Ph-mNH2, OCH2PO3Et2]",EC50,84V90M,535 nM
CCOC(=O)C(C)OP(=O)(COc1ccc(C[C@H](NC(=O)O[C@H]2CO[C@H]3OCC[C@H]32)[C@H](O)CN(CC(C)C)S(=O)(=O)c2ccc(F)cc2)cc1)Oc1ccccc1 (stereo partly shown),I84V/L90M fold change,[2]; I84V/L90M mutant,+ (>3 to ≦10)
same,EC50,[3],< 50 nM
CCOP(=O)(COCCCN1C(=O)N(Cc2ccc3[nH]nc(N)c3c2)C(Cc2ccccc2)C(O)C(O)C1Cc1ccccc1)OCC (stereo not shown) [OCH2PO3Et2],EC50,84V90M,> 6000 nM
CCOP(=O)(Cc1ccc(CC(NC(=O)OC2COC3OCCC23)C(O)CN(CC(C)C)S(=O)(=O)c2ccc(OC)cc2)cc1)OCC (stereo not shown) [drawing 654 R1=OE R2=OE],Ki,[1]; read-out: Ki,< 10 pM
same,I84V/L90M fold change,[2]; [4],+ (>3 to ≦10)
same,EC50,[3],< 50 nM
CCOP(=O)(COc1cc(S(=O)(=O)N(CC(C)C)CC(O)C(Cc2ccccc2)NC(=O)OC2COC3OCCC23)ccc1OC)OCC (stereo not shown),I84V/L90M fold change,[2]; I84V/L90M mutant,+ (>3 to ≦10)
"COC(=O)N[C@H](C(=O)N[C@@H](Cc1ccccc1)[C@@H](O)CN(Cc1ccc(-c2ccccn2)cc1)NC(=O)[C@@H](NC(=O)OC)C(C)(C)C)C(C)(C)C [Atazanavir, reference compound]",I84V/L90M fold change,[2]; [4],+++ (>30)
"COc1ccc(S(=O)(=O)N(CC(C)C)C[C@@H](O)[C@H](Cc2ccc(OCP(=O)(O)O)cc2)NC(=O)OC2CCOC2)cc1 (stereo partly shown) [OMe, OH]",I84V/L90M fold change,[2]; I84V/L90M mutant,+++ (>30)
Cc1cccc(C)c1OCC(=O)NC(Cc1ccc(OCP(=O)(O)O)cc1)C(O)CN(CC(C)C)S(=O)(=O)c1ccc(N)cc1 (stereo not shown),I84V/L90M fold change,[2]; I84V/L90M mutant,+ (>3 to ≦10)
CC(C)CN(C[C@@H](O)[C@H](Cc1ccc(OCP(=O)(OCc2ccccc2)OC(C)C(=O)OCc2ccccc2)cc1)NC(=O)O[C@H]1CO[C@H]2OCC[C@H]21)S(=O)(=O)c1ccc(F)cc1 (stereo partly shown),I84V/L90M fold change,[2]; I84V/L90M mutant,+ (>3 to ≦10)
same,EC50,[3],50 to 500 nM
Cc1cccc(C)c1OCC(=O)N[C@@H](Cc1ccc(OCP(=O)(Oc2ccccc2)Oc2ccccc2)cc1)[C@H](O)CN(CC(C)C)S(=O)(=O)c1ccc(N)cc1,Ki,[1]; read-out: Ki,100 to 1000 pM
same,I84V/L90M fold change,[2]; I84V/L90M mutant,++ (>10 to ≦30)
same,EC50,[3],< 50 nM
CCOC(=O)C(C)OP(=O)(COc1ccc2c(c1)CCN(CC(NC(=O)OC1COC3OCCC13)C(O)CN(CC(C)C)S(=O)(=O)c1ccc(OC)cc1)C2)Oc1ccccc1 (stereo not shown),I84V/L90M fold change,[2]; [4],+ (>3 to ≦10)
CCOC(=O)C(C)OP(=O)(Cc1ccc2c(c1)CCN(C[C@H](NC(=O)O[C@H]1CO[C@H]3OCC[C@H]31)[C@H](O)CN(CC(C)C)S(=O)(=O)c1ccc(OC)cc1)C2)Oc1ccccc1 (stereo partly shown),I84V/L90M fold change,[2]; [4],+ (>3 to ≦10)
same,EC50,[3],50 to 500 nM
Nc1n[nH]c2ccc(CN3C(=O)N(Cc4ccc(OCP(=O)(OCc5ccccc5)OCc5ccccc5)cc4)C(Cc4ccccc4)C(O)C(O)C3Cc3ccccc3)cc12 (stereo not shown),EC50,WT,2700 nM
same,EC50,84V90M,4960 nM
same,EC50,30N82I88D,2120 nM
CC(C)CN(CC(O)C(Cc1ccccc1)NC(=O)OC1COC2OCCC12)S(=O)(=O)c1cccc(O)c1 (stereo not shown),I84V/L90M fold change,[2]; I84V/L90M mutant,+ (>3 to ≦10)
CCCCOC(=O)C(C)OP(=O)(COc1ccc(C[C@H](NC(=O)O[C@H]2CO[C@H]3OCC[C@H]32)[C@H](O)CN(CC(C)C)S(=O)(=O)c2cccc(N)c2)cc1)Oc1ccccc1 (stereo partly shown) [drawing 763],Ki,[1]; read-out: Ki,10 to 100 pM
same,EC50,[3],50 to 500 nM
CC(C)CN(CC(O)C(Cc1ccc(OCP(=O)(O)OC(C)C(=O)O)cc1)NC(=O)OC1COC2OCCC12)S(=O)(=O)c1ccc(CN2CCOCC2)cc1 (stereo not shown),Ki,[1]; read-out: Ki,> 1000 pM
CC(C)CN(CC(O)C(Cc1ccc(OCP(=O)(OCc2ccccc2)OCc2ccccc2)cc1)NC(=O)OC1COC2OCCC12)S(=O)(=O)c1ccc(OC(F)(F)F)cc1 (stereo not shown),I84V/L90M fold change,[2]; I84V/L90M mutant,+ (>3 to ≦10)
